Laboratory results as given in publication PMC12203311, “Design, synthesis, in silico and in vitro evaluation of pyrrole–indole hybrids as dual tubulin and aromatase inhibitors with potent anticancer activities” (RSC Advances, 2025).

How the values were obtained:
[1] = biological target: T1, Human CYP19 (aromatase) (Homo sapiens, UniProt P11511); experiment: Aromatase inhibition assay (DBF fluorometric substrate); format: biochemical; details: active defined as IC50 < 12.5 µM
T1 construct: purchased GENTEST, Woburn, MA 456260; host or cells: baculovirus/insect cells
T1 sequence (P11511 1-503): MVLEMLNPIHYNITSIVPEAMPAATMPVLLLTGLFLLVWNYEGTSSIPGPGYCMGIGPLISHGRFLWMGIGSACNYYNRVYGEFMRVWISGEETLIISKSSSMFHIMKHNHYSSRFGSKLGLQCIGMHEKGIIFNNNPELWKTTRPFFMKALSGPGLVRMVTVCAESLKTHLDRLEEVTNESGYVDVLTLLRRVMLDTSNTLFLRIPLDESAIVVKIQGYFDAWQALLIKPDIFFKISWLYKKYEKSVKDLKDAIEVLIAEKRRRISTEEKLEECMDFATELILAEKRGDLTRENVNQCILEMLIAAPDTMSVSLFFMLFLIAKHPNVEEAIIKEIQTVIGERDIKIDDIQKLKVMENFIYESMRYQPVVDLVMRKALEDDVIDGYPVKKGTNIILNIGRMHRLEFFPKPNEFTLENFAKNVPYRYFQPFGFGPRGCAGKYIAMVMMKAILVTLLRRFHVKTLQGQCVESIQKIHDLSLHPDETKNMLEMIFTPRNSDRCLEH
Protocol: Aromatase enzyme was purchased from GENTEST, Woburn, MA01801, USA (Supersom human CYP19+oxidoreductase, baculovirus/insect cell-expressed; Product No. 456260). The aromatase inhibitory activity was performed using Human CYP19 enzymes and DBF as a fluorometric substrate as described by Stresser, et al.[41] with minor modifications. The mixture, containing 100 µL of cofactor/serial dilution buffer was pre-incubated in 37 °C for 10 min. […] After incubation at 37 °C for 30 min, the reaction was stopped by addition of 50 µL of 2.2 M NaOH. Fluorescence signal was monitored using an excitation wavelength of 490 nm and emission wavelength of 530 nm.

[2] = system: T47D breast cancer cell line; experiment: Cytotoxicity MTT assay, T47D; format: cell-based, human; details: for activity against T47D in two-dose screen: 10 µM and 50 µM; for IC50: MTT, 48 hours
Protocol: (§1) T47D (ATCC HTB-133) was purchased from Biomedia (Thailand) Co., LTD. L929 (ATCC CCL-1) was received as a gift from Prof. Tanapat Palaga, Department of Microbiology, Faculty of Science, Chulalongkorn University, Bangkok, Thailand. The cells were cultured in Dulbecco's Modified Eagle's Medium (DMEM; Gibco) supplemented with 10% fetal bovine serum (FBS; HyClone), 100 U mL^−1 penicillin and 100 µg mL^−1 streptomycin (Gibco) at 37 °C with 5% CO2.
(§2) The antiproliferative activity was determined by MTT assay. Briefly, the cells were plated into a 96-well microplate at the density of 10 000 cells per well. The cells were allowed to grow overnight before treated with the solutions of compounds in culture medium at the designated concentrations for 48 hours. The medium was then replaced with MTT solution (0.5 mg mL^−1 MTT in culture medium) and incubated for 3 hours. A 100 µL of DMSO was used to dissolve the produced formazan. Absorbance at 570 nm was then measured using a microplate reader (Varioskan™ LUX multimode microplate reader, Thermo Scientific™). Percent viability was calculated relative to the vehicle control (DMSO).

[3] = system: L929 normal mouse fibroblast cell line; experiment: Cytotoxicity MTT assay, L929; format: cell-based; details: IC50 (L929)/IC50 (T47D)
Protocol: as §1, §2

[4] = Cytotoxicity MTT assay, L929; format: cell-based, mouse; details: mouse, L929 fibroblast cells; MTT, 48 hours
Protocol: as §1, §2

[5] = system: NCI60 human cell line panel; experiment: NCI60 one-dose screen; format: cell-based; details: 10 µM single dose
Protocol: The one-dose experimental protocol followed the method described in this literature.[28] First, all compounds were tested at a single concentration (10 µM) across the entire NCI60 panel. The results of this assay indicate the growth relative to no-drug control and the number of cells at time zero. This method allows for the detection of growth inhibition (values between 0 to 100) and lethality (value below 0).

SMILES	IC50 [1]	aromatase inhibition [1]	activity against T47D in two-dose screen [2]	other results
O=C(N/N=C/c1ccco1)c1[nH]c2ccc(Br)cc2c1-c1ccccc1 [Derivative 1a, reference compound]	11.3 ± 1.7 µM			
O=C(O)c1cc(/C=N/NC(=O)c2[nH]c3ccc(Br)cc3c2-c2ccccc2)c[nH]1 [Derivative 3w, (E)-4-((2-(5-Bromo-3-phenyl-1H-indole-2-carbonyl)hydrazono)methyl)-1H-pyrrole-2-carboxylic acid]	> 12.5 µM	inactive against aromatase	weak activity	
CCOC(=O)c1cc[nH]c1/C=N/NC(=O)c1[nH]c2ccc(Br)cc2c1-c1ccccc1 [Derivative 3k, Ethyl (E)-2-((2-(5-bromo-3-phenyl-1H-indole-2-carbonyl)hydrazono)methyl)-1H-pyrrole-3-carboxylate]	0.018 ± 0.002 µM			Selectivity index (SI) [3]: 1.42; IC50 at 48 h [4]: 15 ± 8.9 µM; IC50 ([2]; Homo sapiens, T47D): 10.6 ± 1.1 µM; NCI mean (mean growth percentage over the panel) [5]: 49%
O=C(N/N=C/c1cc(C(=O)N2CCOCC2)c[nH]1)c1[nH]c2ccc(Br)cc2c1-c1ccccc1 [Derivative 3o, (E)-5-Bromo-N′-((4-(morpholine-4-carbonyl)-1H-pyrrol-2-yl)methylene)-3-phenyl-1H-indole-2-carbohydrazide]	1.6 ± 0.4 µM			IC50 at 48 h [4]: 43.2 ± 9.9 µM; IC50 ([2]; Homo sapiens, T47D): 14.9 ± 1 µM; NCI mean (mean growth percentage over the panel) [5]: 45%
O=C(N/N=C/c1c[nH]c(C(=O)N2CCOCC2)c1)c1[nH]c2ccc(Br)cc2c1-c1ccccc1 [Derivative 3x, (E)-5-Bromo-N′-((5-(morpholine-4-carbonyl)-1H-pyrrol-3-yl)methylene)-3-phenyl-1H-indole-2-carbohydrazide]	3.7 ± 0.6 µM		weak activity	
N.N.[Cl][Pt][Cl] [Cisplatin, reference compound]				IC50 [2]: > 100 µM
O=C(O)c1c[nH]c(/C=N/NC(=O)c2[nH]c3ccc(Br)cc3c2-c2ccccc2)c1 [Derivative 3m, (E)-5-((2-(5-Bromo-3-phenyl-1H-indole-2-carbonyl)hydrazono)methyl)-1H-pyrrole-3-carboxylic acid]	> 12.5 µM	inactive against aromatase	weak activity	growth inhibition in the single dose experiment [5]: mild effects
O=C(O)c1ccc(/C=N/NC(=O)c2[nH]c3ccc(Br)cc3c2-c2ccccc2)[nH]1 [Derivative 3l, (E)-5-((2-(5-Bromo-3-phenyl-1H-indole-2-carbonyl)hydrazono)methyl)-1H-pyrrole-2-carboxylic acid]	> 12.5 µM	inactive against aromatase	weak activity	growth inhibition in the single dose experiment [5]: mild effects
O=C(N/N=C/c1cccs1)c1[nH]c2ccc(Br)cc2c1-c1ccccc1 [Derivative 2a, reference compound]	> 12.5 µM	lacked aromatase inhibition		
